Patent US8865182B2 (priority 2009, dated 2014)

System: HLA-A3 supertype (A*0301, A*1101, A*3101, A*3301, A*6801)
Format: binding, human

First: SINELSNLAK (Influenza Virus) [SEQ ID NO: 294]
Second: KFLPDLYDYK (Influenza Virus) [SEQ ID NO: 177]
The “# Alleles Bound” value of the first is higher: 3 for the first, 2 for the second.

First: SVQPTFSVQR (Influenza Virus) [SEQ ID NO: 124]
Second: YQKCCNLFEK (Influenza Virus) [SEQ ID NO: 242]
The “# Alleles Bound” value of the first is higher: 4 for the first, 2 for the second.

“TLARSICEK (Influenza Virus) [SEQ ID NO: 230]” and “AVASGYDFER (Influenza Virus) [SEQ ID NO: 123]” are the same in “# Alleles Bound” value: 3 for the first, 3 for the second.

First: ALANTIEVFR (Influenza Virus) [SEQ ID NO: 226]
Second: SFSFGGFTFK (Influenza Virus) [SEQ ID NO: 283]
The “# Alleles Bound” value of the first is lower: 3 for the first, 5 for the second.

First: ITGFAPFSK (Influenza Virus) [SEQ ID NO: 93]
Second: TFEFTSFFYR (Influenza Virus) [SEQ ID NO: 236]
The “# Alleles Bound” value of the first is lower: 3 for the first, 4 for the second.

Compared with “MVMELIRMIK (Influenza Virus) [SEQ ID NO: 122]”, “VVFCGTSGTY (Influenza Virus) [SEQ ID NO: 96]” is lower in “# Alleles Bound” value: 4 for the first, 2 for the second.

Going from “VLTGNLQTLK (Influenza Virus) [SEQ ID NO: 287]” to GTFEFTSFFY [SEQ ID NO: 235], the “# Alleles Bound” value rises from 2 to 4.

“KLVGINMSK (Influenza Virus) [SEQ ID NO: 233]” and “TVDHMAIIK (Influenza Virus) [SEQ ID NO: 276]” are the same in “# Alleles Bound” value: 2 for the first, 2 for the second.

“RLFFKCIYR (Influenza Virus) [SEQ ID NO: 81]” and RLFFKCIYRR [SEQ ID NO: 82] are the same in “# Alleles Bound” value: 5 for the first, 5 for the second.

Compared with ASCMGLIYNR [SEQ ID NO: 74], “ALMEWLKTR (Influenza Virus) [SEQ ID NO: 73]” is higher in “# Alleles Bound” value: 4 for the first, 5 for the second.

First: ALTLNTMTK (Influenza Virus) [SEQ ID NO: 229]
Second: TTSTVHYPK (Influenza Virus) [SEQ ID NO: 278]
The “# Alleles Bound” value of the first is lower: 2 for the first, 5 for the second.

“SQDPTMLYNK (Influenza Virus) [SEQ ID NO: 290]” and “MQGSTLPRR (Influenza Virus) [SEQ ID NO: 120]” are the same in “# Alleles Bound” value: 2 for the first, 2 for the second.

Compared with “ASYKIFKIEK (Influenza Virus) [SEQ ID NO: 95]”, “RIMEMIPER (Influenza Virus) [SEQ ID NO: 277]” is higher in “# Alleles Bound” value: 2 for the first, 4 for the second.

First: GTFGPVHFR (Influenza Virus) [SEQ ID NO: 282]
Second: VQPTFSVQR (Influenza Virus) [SEQ ID NO: 125]
The “# Alleles Bound” value of the first is higher: 5 for the first, 3 for the second.

Going from KTNLYGFIIK [SEQ ID NO: 183] to “TTVDHMAIIK (Influenza Virus) [SEQ ID NO: 275]”, the “# Alleles Bound” value falls from 4 to 2.

First: KLVGINMSKK (Influenza Virus) [SEQ ID NO: 234]
Second: SLMQGSTLPR (Influenza Virus) [SEQ ID NO: 119]
The “# Alleles Bound” value of the first is lower: 2 for the first, 4 for the second.

Compared with “SIAPIMFSNK (Influenza Virus) [SEQ ID NO: 231]”, “GTMVMELIR (Influenza Virus) [SEQ ID NO: 121]” is lower in “# Alleles Bound” value: 4 for the first, 3 for the second.

Compared with “RTFFGWKEPY (Influenza Virus) [SEQ ID NO: 180]”, “MTKEFFENK (Influenza Virus) [SEQ ID NO: 186]” is higher in “# Alleles Bound” value: 3 for the first, 5 for the second.

Compared with “FQLIPMISK (Influenza Virus) [SEQ ID NO: 182]”, “GTFDTVQIIK (Influenza Virus) [SEQ ID NO: 291]” is higher in “# Alleles Bound” value: 2 for the first, 3 for the second.
